Reference: patent US5958906A, “Phospholipid derivatives containing higher elements of the fifth main group” (ASTA-Medica Aktiengesellschaft, priority 1992, dated 1999)
In brackets after ≈: the same amount, converted by molar mass. Where a name gives a salt, the structure may show the parent alone.

Assays:
[1] = tested on: Leishmania mexicana (promastigotes); assay: Inhibiting effect on Leishmania mexicana (promastigotes); assay type: cell-based; conditions: partially mean values of two values
Protocol: Tests measuring the inhibiting effect on Leishmania mexicana (promastigotes) were conducted in accordance with the procedures set forth in R. F. Stieger et al., European Journal of Biochemistry, Vol.105 (1980), pp.163-175 and D. T. Hardt, and F. R. Opperdoes, Molecular and Biochemical Parasitology Vol. 113 (1984), pp. 159-172.
Inhibiting effect on Leishmania mexicana (promastigotes),
indicated as EC90 values (partially mean values of two values)

KB cells [2] = assay: Soft-Agar-Colony-Assay with KB cells in vitro; assay type: cell-based; conditions: colony formation inhibited up to 90%, effective criterion EC90 <10 μg/ml; for IC90: Homo sapiens
Protocol: Tests with KB cells were carried out as a Soft-Agar-Colony-Assay in accordance with Salmon and Hamburger, N. Engl.
(§1) Values exceeding 100 indicate tumor regressions in relation to the starting size of the tumor. […] Values below 0 indicate that the tumor growth was stimulated. KB in vivo represents a tumor model in which KB cells are transplanted subcutaneously into naked NMRI mice. DMBA in vivo represents a tumor model in which tumors of the milk inguinal were induced chemically in female test rats by administering Dimethylbenzanthracen (DMBA). EC90 values which exceed 10 are considered ineffective.

[3] = tested on: tumors of the milk inguinal induced by Dimethylbenzanthracen (DMBA); assay: DMBA in vivo: tumors of the milk inguinal induced chemically by Dimethylbenzanthracen, growth inhibition index; parameters: species or system female test rats; conditions: orally, >100 = tumor regression
Protocol: (§2) The substances were administered orally in solution with the help of an esophagus probe (respective dosages in parenthesis).
(§3) Indicated is the growth inhibition index (Wachstumshemmungsindex WHI) in percent which was reached and which can be calculated as follows: [formula] with WC =median tumor weight difference in the reference group based on day 0
(§4) Wt =corresponding value for the treated group
as §1

L1210-cell = L1210-cell culture experiment; assay type: cell-based; conditions: 90% growth inhibition in vitro vs control
Source text: The EC90 is the concentration of an anti-tumor substance in μg/ml which inhibits the growth of cancer cells by 90% in vitro compared to a control experiment without addition of the anti-tumor substance.

KB cells [4] = assay: KB in vivo: KB cells transplanted subcutaneously into naked NMRI mice, growth inhibition index; conditions: orally, >100 = tumor regression
Protocol: as §2, §3, §4, §1

[5] = LD50 on single administration per os in the mouse; conditions: in vivo, po

| Structure (SMILES) | EC90 (KB cells in vitro) (KB cells [2]) | IC90 (KB cells [2]) [µg/mL] | also measured |
| --- | --- | --- | --- |
| CCCCCCCCCCCCCCCCCCOCC(COP(=O)([O-])OCC[As+](C)(C)C)OC (racemic) [Example 24, 1-0-Octadecyl-2-0-methyl-rac-glycerophosphoarsenocholine] | 2.8 µg/mL | – | EC90 inhibiting effect on Leishmania mexicana (promastigotes) [1]: 0.9 µg/mL; EC90 ([1]; molar): 1500 nM; WHI (DMBA in vivo), growth inhibition index ([3]; 4 × 100 mg/kg): 73% |
| CCCCCCCCCCCCCCCCCCOCC(COP(=O)([O-])OCC[P+](C)(C)C)OC (racemic) [Example 25] | – | 2.7 (≈ 4.99 µM) | EC90 ([1]; Leishmania mexicana): 1.8 µg/mL; EC90 ([1]; Leishmania mexicana, molar): 3300 ± 370 nM |
| CCCCCCCCCCCCCCCCCCOP(=O)([O-])OCC[As+](C)(C)C [Example 1, 2-[[(Octadecyloxy)hydroxyphosphenyl]oxy]-As,As,As-trimethyl ethyl arsonium inner salt] | 3.2 µg/mL | – | EC90 inhibiting effect on Leishmania mexicana (promastigotes) [1]: 0.8 µg/mL; EC90 ([1]; molar): 1800 nM; EC90 (L1210-cell): 2.9 µg/mL; WHI (KB in vivo), growth inhibition index (KB cells [4]; 1 × 511 mg/kg): 42.9%; WHI (DMBA in vivo), growth inhibition index ([3]; 4 × 100 mg/kg): 112.8% |
| CCCCCCCCCCCCCCCCOP(=O)([O-])OCC[As+](C)(C)C [Example 2, 2-[[(hexadecyloxy)hydroxyphosphinyl]oxy]-As,As,As-trimethyl ethyl arsonium inner salt] | 27 µg/mL | – | – |
| CCCCCCCC/C=C\CCCCCCCCCCCCOP(=O)([O-])OCC[As+](C)(C)C [Example 3, 2-[[(cis-13-docosenyloxy)hydroxyphosphinyl]oxy-As,As,As-trimethylethylarsoniuminner salt] | > 10 µg/mL | – | LD50 [5]: > 1470 mg/kg |
| CCCCCCCCCCCCCCCCCCOP(=O)([O-])OCC[P+](C)(C)C [Example 4, 2-[[(octadecyloxy)hydroxyphosphinyl]oxy]-P,P,P-trimethyl ethyl phosphonium inner salt] | – | 3.1 | EC90 ([1]; Leishmania mexicana): 0.8 µg/mL; EC90 ([1]; Leishmania mexicana, molar): 1800 ± 220 nM; WHI (KB in vivo), growth inhibition index (KB cells [4]; 2 × 316 mg/kg): 111%; WHI (DMBA in vivo), growth inhibition index ([3]; 4 × 147 mg/kg): 108.7% |
| CCCCCCCCCCCCCCCCOP(=O)([O-])OCC[P+](C)(C)C [Example 5, 2-[[(hexadecyloxy)hydroxyphosphinyl]oxy]-P,P,P-trimethyl ethyl phosphonium inner salt] | – | > 10 | – |
| CCCCCCCC/C=C\CCCCCCCCCCCCOP(=O)([O-])OCC[P+](C)(C)C [Example 6, 2-[[(Cis-13-docosenyloxy) hydroxyphosphinyl]oxy]-P,P,P-trimethylethyl phosphonium inner salt] | – | > 10 | WHI (DMBA in vivo), growth inhibition index ([3]; 4 × 147 mg/kg): 43.9% |
| CCCCCCCCCCCCCCCCCCOP(=O)([O-])OCC[As+](CC)(CC)CC [Example 7, 2-[[(Octadecyloxy)hydroxyphosphinyl]oxy]-As,As,As-triethyl ethyl arsonium inner salt] | 3.0 µg/mL | – | – |
| CCCCCCCCCCCCCCCCOP(=O)([O-])OCC[As+](CC)(CC)CC [Example 8, 2-[[(Hexadecyloxy)hydroxyphosphinyl]oxy]-As,As,As-tri-ethyl ethyl arsonium inner salt] | > 10 µg/mL | – | – |
| CCCCCCCC/C=C\CCCCCCCCCCCCOP(=O)([O-])OCC[As+](CC)(CC)CC [Example 9, 2-[[Cis-13-docosenyloxy)hydroxyphosphinyl]oxy]-As,As,As-triethylethyl arsonium inner salt] | > 10 µg/mL | – | – |
| CCCCCCCCCCCCCCCCCCOP(=O)([O-])OCCC[As+](C)(C)C [Example 10, 3-[[(Octadecyloxy)hydroxyphosphinyl]oxy]-As,As,As-trimethyl propylarsonium inner salt] | 5.8 µg/mL | – | WHI (KB in vivo), growth inhibition index (KB cells [4]; 2 × 316 mg/kg): 104% |
| CCCCCCCCCCCCCCCCOP(=O)([O-])OCCC[As+](C)(C)C [Example 11, 3-[[(Hexadecyloxy)hydroxyphosphinyl]oxy]-As,As,As-trimethyl propylarsonium inner salt] | > 10 µg/mL | – | – |
| CCCCCCCC/C=C\CCCCCCCCCCCCOP(=O)([O-])OCCC[As+](C)(C)C [Example 12, 3-[[(Cis-13-docosenyloxy)hydroxyphosphinyl]oxy]-As,As,As-trimethylpropyl arsonium inner salt] | > 10 µg/mL | – | – |
| CCCCCCCC/C=C\CCCCCCCCCCCCOP(=O)([O-])OCCC[P+](C)(C)C [Example 13, 3-[[(Cis-13-docosenyloxy)hydroxyphosphinyl]oxy]-P,P,P-tri-methylpropyl phosphonium inner salt] | – | > 10 | – |
| CCCCCCCCCCCCCCCCCCOP(=O)([O-])OCCC[P+](C)(C)C [Example 14, 3-[[(Octadecyloxy)hydroxyphosphinyl]oxy]-P,P,P-trimethylpropyl phosphonium inner salt] | – | 3 | – |
| CCCCCCCCCCCCCCCCOP(=O)([O-])OCCC[P+](C)(C)C [Example 15, 3-[[(Hexadecyloxy)hydroxyphosphinyl]oxy]-P,P,P-trimethylpropyl phosphonium inner salt] | – | > 10 | – |
| CCCCCCCCCCCCCCCCCCCOP(=O)([O-])OCC[P+](C)(C)C [Example 16, 3-[[(Nonadecyloxy)hydroxyphosphinyl]oxy]-P,P,P-trimethyl-ethyl phosphonium inner salt] | – | 2.6 | – |
| CCCCCCCCCCCCCCCCCCCCOP(=O)([O-])OCC[P+](C)(C)C [Example 17, 3-[[(Eicosyloxy)hydroxyphosphinyl]oxy]-P,P,P-trimethylethyl phosphonium inner salt] | – | 3 | – |
| CCCCCCCCCCCCCCCCCCCOP(=O)([O-])OCC[As+](C)(C)C [Example 18, 2-[[(Nonadecyloxy)hydroxyphosphinyl]oxy]-As,As,As-trimethethyl arsonium inner salt] | 3.0 µg/mL | – | – |
| CCCCCCCCCCCCCCCCCCCCOP(=O)([O-])OCC[As+](C)(C)C [Example 19, 2-[[(Eicosyloxy)hydroxyphosphinyl]oxy]-As,As,As-trimethylethyl arsonium inner salt] | insoluble | – | – |
| CCCCCCCCCCCCCCCCCOP(=O)([O-])OCC[As+](C)(C)C [Example 20, 2-[[(Heptadecyloxy)hydroxyphosphinyl]oxy]-As,As,As-trimethylethyl arsonium inner salt] | 3.2 µg/mL | – | – |
| CCCCCCCCCCCCCCCCCCOP(=O)([O-])OCC[P+](CC)(CC)c1ccccc1 [Example 21, 2-[[(Octadecyloxy)hydroxyphosphinyl]oxy]-P,P-diethyl-P-phenyl-ethyl phosphonium inner salt] | – | 3.1 | – |
| CCCCCCCC/C=C\CCCCCCCCCCCCOP(=O)([O-])OCC[P+](CC)(CC)c1ccccc1 [Example 22, 2-[[(Cis-13-docosenyloxy)hydroxyphosphinyl]oxy]-P,P-diethyl P-phenyl-ethyl phosphonium inner salt] | – | 3.1 | – |
| CCCCCCCCCCCCC1CCC(COP(=O)([O-])OCC[As+](C)(C)C)CC1 (stereo not drawn) [Example 23, 2-[[(4'-Dodecylcyclohexyl)methyloxy)hydroxyphosphinyl]oxy]As,As,As-trimethylethyl arsonium inner salt] | > 10 µg/mL | – | – |
